Test results as given in article PMC4723341, “Ribonuclease H/DNA Polymerase HIV-1 Reverse Transcriptase Dual Inhibitor: Mechanistic Studies on the Allosteric Mode of Action of Isatin-Based Compound RMNC6” (PLoS ONE, 2016).

Tests used:
[1] = molecular target: T1, HIV-1 RT-associated RNase H activity, V108A RT (Human immunodeficiency virus type 1 group M subtype B, UniProt P04585, V695A); assay: RNase H activity assay, V108A RT; type: biochemical, HIV-1 group M subtype B
T1 construct: The 1:1 ration between the p66/p51 subunits was also verified; made in house; host or cells: E. coli M15
Description: (§1) HIV RT-associated RNase H activity was measured as described in 100 μL reaction volume containing 50 mM Tris-HCl buffer pH 7.8, 6 mM MgCl2, 1 mM dithiothreitol (DTT), 80 mM KCl, 0.25 μM hybrid RNA/DNA 5'-GAUCUGAGCCUGGGAGCU-Fluorescin-3' (HPLC, dry, QC: Mass Check) (available from Metabion) 5'-Dabcyl-AGCTCCCAGGCTCAGATC-3'(HPLC, dry, QC: Mass Check), increasing concentrations of inhibitors, whose dilution were made in water, and different amount of enzymes according to a linear range of dose-response curve: 20 ng of WT RT; 60 ng K103N RT; 37.5 ng V106A RT; 75 ng V108A RT; 5 ng Y181C RT; 50 ng Y188A RT; 30 ng Y188L RT; 100 ng E224A RT; 37.5 ng P225A RT; 20 ng P226A RT; 18 ng F227A RT; 30 ng L228A RT; 30 ng W229A RT; 10 ng M230A RT; 30 ng G231A RT; 62.5 ng N474A RT; 1 μg Y501A RT; 100 ng A502F RT; 37.5 ng A508V RT; 38 ng HIV-1 group O RT. The reaction mixture was incubated for 1 h at 37°C, stopped by addition of EDTA and products were measured with a multilabel counter plate reader Victor 3 (Perkin Elmer model 1420–051) equipped with filters for 490/528 nm (excitation/emission wavelength)

[2] = molecular target: T2, HIV-1 RT-associated RDDP activity, wt RT (Human immunodeficiency virus type 1 group M subtype B, UniProt P04585); assay: biochemical; parameters: species or system HIV-1 group M subtype B
T2 construct: The 1:1 ration between the p66/p51 subunits was also verified; made in house; host or cells: E. coli M15

[3] = molecular target: HIV-1 RT-associated RDDP activity, HIV-1 group O RT (Human immunodeficiency virus type 1 group O, UniProt Q79666); assay: RDDP activity assay, HIV-1 group O RT; type: biochemical; conditions: read-out: IC50 RDDP
Text: Recombinant HIV-1 group O RT was expressed and purified as previously described. It was obtained as a heterodimer composed of subunits of 66 and 51 kDa, with a polyhistidine tag at the C-terminus of p66. For this purpose, the RT p66 subunit encoded within a p66RTB expression vector was co-expressed with the HIV-1 protease in E. coli XL-1 Blue, and the obtained heterodimers were then purified by ionic exchange followed by chromatography on Ni2+-nitriloacetic acid agarose. The enzyme was quantified by active site titration before biochemical studies.
RNA-dependent DNA polymerase (RDDP) activity was measured as described in 25 μL volume containing 60 mM Tris-HCl buffer pH 8.1, 8 mM MgCl2, 60 mM KCl, 13 mM DTT, 2.5 μM poly(A)-oligo(dT), 100 μM dTTP, increasing concentrations of inhibitors, whose dilution were made in water, and different amounts of enzymes according to a linear range of dose-response curve: 6 ng wt RT; 30 ng K103N RT; 12 ng V106ART; 19 ng V108A RT; 1.51.5 ng Y181C RT; 45 ng Y188A RT; 15 ng Y188L RT; 30 ng E224A RT; 15 ng P225A RT; 18 ng P226A RT; 23 ng F227A RT; 15 ng L228A RT; 30 ng W229A RT; 30 ng M230A RT; 15 ng G231A RT; 15 ng N474A RT; 15 ng Y501A RT; 15 ng A502F RT; 19 ng A508V RT; 38 ng HIV-1 group O RT. After enzyme addition, the reaction mixture was incubated for 30 min at 37°C and the stopped by addition of EDTA. […]

[4] = molecular target: T3, HIV-1 RT-associated RDDP activity, V106A RT (Human immunodeficiency virus type 1 group M subtype B, UniProt P04585, V693A); assay: biochemical; parameters: species or system HIV-1 group M subtype B
T3 construct: The 1:1 ration between the p66/p51 subunits was also verified; made in house; host or cells: E. coli M15

[5] = molecular target: T4, HIV-1 RT-associated RDDP activity, E224A RT (Human immunodeficiency virus type 1 group M subtype B, UniProt P04585, E811A); assay: biochemical; parameters: species or system HIV-1 group M subtype B
T4 construct: The 1:1 ration between the p66/p51 subunits was also verified; made in house; host or cells: E. coli M15

[6] = molecular target: T5, HIV-1 RT-associated RDDP activity, P226A RT (Human immunodeficiency virus type 1 group M subtype B, UniProt P04585, P813A); assay: biochemical; parameters: species or system HIV-1 group M subtype B
T5 construct: The 1:1 ration between the p66/p51 subunits was also verified; made in house; host or cells: E. coli M15

[7] = molecular target: T6, HIV-1 RT-associated RDDP activity, F227A RT (Human immunodeficiency virus type 1 group M subtype B, UniProt P04585, F814A); assay: biochemical; parameters: species or system HIV-1 group M subtype B
T6 construct: The 1:1 ration between the p66/p51 subunits was also verified; made in house; host or cells: E. coli M15

[8] = system: HIV-1 RT-associated RDDP activity, F227A RT; assay: biochemical; parameters: species or system HIV-1 group M subtype B; conditions: F227A RT
[9] = molecular target: T7, HIV-1 RT-associated RDDP activity, W229A RT (Human immunodeficiency virus type 1 group M subtype B, UniProt P04585, W816A); assay: biochemical; parameters: species or system HIV-1 group M subtype B
T7 construct: The 1:1 ration between the p66/p51 subunits was also verified; made in house; host or cells: E. coli M15

[10] = molecular target: T8, HIV-1 RT RNA-dependent DNA polymerase activity (Human immunodeficiency virus type 1 group M subtype B, UniProt P04585); assay: Yonetani-Theorell analysis of RMNC6 and EFV on RDDP function; type: biochemical
T8 construct: The 1:1 ration between the p66/p51 subunits was also verified; made in house; host or cells: E. coli M15
Description: RNA-dependent DNA polymerase (RDDP) activity was measured as described in 25 μL volume containing 60 mM Tris-HCl buffer pH 8.1, 8 mM MgCl2, 60 mM KCl, 13 mM DTT, 2.5 μM poly(A)-oligo(dT), 100 μM dTTP, increasing concentrations of inhibitors, whose dilution were made in water, and different amounts of enzymes according to a linear range of dose-response curve: 6 ng wt RT; 30 ng K103N RT; 12 ng V106ART; 19 ng V108A RT; 1.51.5 ng Y181C RT; 45 ng Y188A RT; 15 ng Y188L RT; 30 ng E224A RT; 15 ng P225A RT; 18 ng P226A RT; 23 ng F227A RT; 15 ng L228A RT; 30 ng W229A RT; 30 ng M230A RT; 15 ng G231A RT; 15 ng N474A RT; 15 ng Y501A RT; 15 ng A502F RT; 19 ng A508V RT; 38 ng HIV-1 group O RT. After enzyme addition, the reaction mixture was incubated for 30 min at 37°C and the stopped by addition of EDTA. Reaction products were detected by picogreen addition and measured with a multilabel counter plate reader Victor 3 (Perkin Elmer model 1420–051) equipped with filters for 502/523 nm (excitation/emission wavelength). The Yonetani-Theorell analysis was performed as described previously.

[11] = molecular target: DNA polymerase activity of HIV-1 group O RT and wild-type and mutant HIV-1 group M subtype B RTs; assay: RDDP assays, HIV-1 group O RT and wild-type and mutant HIV-1 group M subtype B RTs together; type: biochemical; conditions: wild-type and mutant (K103N, Y181C, Y188L) group M subtype B RTs, read-out: IC50 RDDP, range over all enzymes
[12] = system: HIV-1 RT-associated RNase H activity, V106A RT; assay: RNase H activity assay, V106A RT; type: biochemical, HIV-1 group M subtype B; conditions: V106A RT
Description: as §1

| SMILES | IC50 [1] [µM] | IC50 [2] [µM] | IC50 [3] [µM] | IC50 [4] [µM] | Fold of increase of RDDP IC50 with respect to wt RT ([4]; V106A RT) | IC50 [5] [µM] | Fold of increase of RDDP IC50 with respect to wt RT ([5]; E224A RT) | IC50 [6] [µM] | Fold of increase of RDDP IC50 with respect to wt RT ([6]; P226A RT) | IC50 [7] [µM] | Fold of increase of RDDP IC50 with respect to wt RT [8] | IC50 [9] [µM] | Fold of increase of RDDP IC50 with respect to wt RT ([9]; W229A RT) | Mutual exclusivity of inhibition (Yonetani-Theorell, words) ([10]; RMNC6 combined with EFV (4, 8, 16 nM) on RDDP function) | Interaction constant α (Yonetani-Theorell) ([10]; combined effects of RMNC6 and EFV on RDDP function) | IC50 [11] [µM] | Fold of increase of RNase H IC50 with respect to wt RT [12] |
| --- | --- | --- | --- | --- | --- | --- | --- | --- | --- | --- | --- | --- | --- | --- | --- | --- | --- |
| N#Cc1ccc(-c2csc(NN=C3C(=O)Nc4ccccc43)n2)cc1 [RMNC6, (Z)-4-(2-(2-(2-oxoindolin-3-ylidene)hydrazinyl)thiazol-4-yl)benzonitrile] | 13.1 ± 2.5 | 9.8 ± 1.4 | 20.1 ± 7.4 | 25.1 ± 2.3 | 2.5 | 13.8 ± 4.2 | 1.4 | 18.9 ± 0.7 | 1.9 | 15.2 ± 0.9 | 1.5 | 15.4 ± 2.8 | 1.6 | not mutually exclusive | 1.2 | 5.4 to 20.1 | – |
| CC(C)c1ccc(O)c(=O)c(O)c1 [BTP, β-thujaplicinol, reference compound] | 0.18 ± 0.04 | – | – | – | – | – | – | – | – | – | – | – | – | – | – | – | 0.8 |
